From patent US10857214B2, “Compositions and methods for treating gluten intolerance and disorders arising therefrom” (Codexis, Inc., priority 2015, dated 2020) come the findings set out here.

For data set [1], the system named is crude gliadin. Briefly: crude gliadin slurry clarification (gravimetric analysis, turbidity at 595 nm). It is filed as biochemical, wheat. The note with it: 10 g/L crude gliadin slurry, pH 2.5, 37° C.; enzyme alone. The method, then:
Inset: temporal profiling of slurry (left to right: 0, 30, 60, 90 min) using the protein-enriched fluid extract. […] Turbidity of the digested gliadin was monitored as absorbance at 595 nm ([…]). Black lines represent the turbidity of the gliadin slurry in the absence of protease. Measurement precision was <3% RSD (n=3). […] Data taken from FIGS. 8A-8C. Values reported as milligrams of gliadin per micromolar enzyme concentration per minute digestion time. […] Digest progress was monitored by gravimetric analysis, optical transmission, SDS-PAGE and mass spectrometry. […] For monitoring with optical transmission, digestion reactions were conducted in 96-well plate with ≥3 replicates of each reaction condition, and turbidity monitored at 595 nm at 37° C. every 2 minutes, for 90 minutes (SpectraMax plate reader, Molecular Devices). […] An aliquot of the reaction mixture was analyzed on an 8% SDS-PAGE gel. The remaining amount was centrifuged and the supernatant was analyzed by mass spectrometry.

For data set [2], the system named is crude gliadin digests treated with human transglutaminase-2. Briefly: TG2-induced deamidation of gliadin digestion products. The note with it: 0.1 mg/mL human transglutaminase-2, pH 7.5, 37° C., 90 minutes. It is filed as biochemical. The source says: Fractional deamidation quantified for all peptides from ion chromatogram intensities; data presented as a ratio, where the antigenic peptide deamidation is normalized to the non-antigenic peptide deamidation at the indicated protease concentration. Antigenic regions defined using the DQ2 criteria, inset table.
Whether enhanced digestion profiles would impact deamidation in antigenic regions was investigated. The recognition of immunodominant peptides by T cells is amplified when these peptides are deamidated in their core binding region by tissue transglutaminase 2 (TG2), particularly at position P4 or P6 in HLA DQ2 associated celiac disease. […] Crude gliadin digests were analyzed for the conversion of non-deamidated peptides to deamidated forms, and sorted all the peptides using a previously published algorithm for the identification of DQ2 binding motifs.
Supernatants from crude gliadin digests were treated with 0.1 mg/mL human transglutaminase-2 (R&D Systems, Cat. 4376-TG-050) in 100 mM Tris-HCl pH 7.5, 2 mM CaCl2 at 37° C. for 90 minutes, and quenched at 95° C. for 15 minutes, following a published protocol. Treated digests were analyzed by data-dependent LC-MS/MS as described above, allowing for variable N and Q deamidation in database searches. […]

The subject of data set [3] is 33mer from α-gliadin. Briefly: digestion of 33mer peptide by fluid fractions, MALDI-TOF. The class given is biochemical. The method, then:
Left: Silver-stain SDS-PAGE of fraction 1 containing nepenthesin, and MALDI spectrum of 33mer peptide processed with fraction 1. Right: Silver-stain SDS-PAGE of fraction 2 containing an unknown enzyme, and MALDI spectrum of 33mer peptides processed with fraction 2. MALDI of undigested 33mer in red, digested 33mer in black.
Two proteolytic components were isolated. Activity was retested against a 33mer from α-gliadin using MALDI-TOF. Fractions were also analyzed for protein content using MALDI-TOF (sinapinic acid as matrix), highlighting a single peak at 29 kDa. Fractions enriched in non-specific cleavage properties were further purified using gel filtration and retested for purity and for activity against 33mer.
Fluid protein concentrate was exchanged into 50 mM glycine and subjected to column chromatofocusing with fractionation. Fractions were analyzed for activity using MALDI-TOF (Sciex 5800 TOF/TOF, α-cyano-4-hydroxycinnamic acid as matrix). To test for activity, protein substrates were incubated with aliquots of column fractions at room temperature for 20 minutes and the digests analyzed by MALDI-TOF. Fractions enriched in proline cleavage were manually purified by reversed phase chromatography on Protein MacroTraps (Optimize Technologies). Enzyme was eluted and confirmed active against protein substrates.

Data set [4] has as its system NOD DQ8 mice. Briefly: transgenic NOD/HLA-DQ8 mouse model of gliadin sensitivity. The note with it: gliadin codigested with pepsin 100:1 and fluid enzyme 264:1 or nepenthesin II 100:1; pepsin alone is positive control.
In data set [5] the test system is α-gliadin peptide 33mer. Briefly: digestion profile of α-gliadin peptide 33mer under dilute conditions, LC-MS. It is filed as biochemical. The note with it: equivalent digestion conditions at optimum pH (2 for pepsin, 7 for MX). From the text:
Normalized relative abundance measured from LC-MS ion chromatograms, using caffeine as internal standard. Figure discloses SEQ ID NOS 88, 28, and 89-91, respectively, in order of appearance.
Using the pepsin-resistant 33mer, the evolution of peptide products was monitored under dilute conditions.

Data set [6] concerns crude gliadin. Briefly: SDS-PAGE and proteomic LC-MS/MS analysis of crude gliadin digests. It is filed as biochemical, Triticum aestivum. The method, then: Digestions at pH 2.5 and 37° C., for 90 min. All concentrations in μM. M: Molecular weight markers, and gliadin: total crude gliadin in the absence of protease. […] Peptide data from LC-MS/MS runs, with intensities obtained using Protein Deconvolution 1.0. […] A stock gliadin slurry of 20-50 mg/ml was prepared in acidic solution (100 mM glycine HCl, pH 2.5) and briefly sonicated to further break up large particulates and promote suspension. Digestions of 10 mg/mL gliadin slurries were initiated by addition of enzyme (pepsin, fluid enzymes or both) and held at 37° C. with gentle rotation. Digest progress was monitored by gravimetric analysis, optical transmission, SDS-PAGE and mass spectrometry. For gravimetric analysis, digests were quenched by boiling and treated with TCA/chloroform, followed by centrifugation to recover undigested or poorly digested protein. For monitoring with optical transmission, digestion reactions were conducted in 96-well plate with ≥3 replicates of each reaction condition, and turbidity monitored at 595 nm at 37° C. every 2 minutes, for 90 minutes (SpectraMax plate reader, Molecular Devices). The plate was shaken at medium speed briefly between measurements. The digests were quenched after 90 min reaction by boiling for 10 minutes (confirmed to have no impact on digestion profile, a posteriori). An aliquot of the reaction mixture was analyzed on an 8% SDS-PAGE gel. The remaining amount was centrifuged and the supernatant was analyzed by mass spectrometry. Supernatant was analyzed by data-dependent LC-MS/MS, in two 1-hour reversed phase gradient runs, configured for top-10 ion selection using CID in a high/low configuration. In one run, ion selection was restricted to 2+ and higher charge states. In the other run, ion selection was applied to 1+ charge states only. Data from both runs were combined and searched against all UniprotKB/Swiss-Prot entries for gliadin and glutenin from Triticum aestivum (25 proteins), using Mascot v2.3, configured for non-specific digestions and filtered for peptide hits with p<0.05. For estimation of peptide size distribution, all LC-MS spectra were combined and deconvoluted in Protein Deconvolution v1.0, with appropriate settings. For label-free quantitative analysis using the subset of the digest identified in the database search, the hit list was combined with the raw data in Mass Spec Studio and used to generate a set of peptide ion chromatograms, integrated over all isotopes to determine a weight-average intensity for each peptide sequence identified.

With “pepsin: gastric enzyme (EC 3.4.23.1) used as control protease”, the maximum clarification rate in data set [1] is 0.3 mg/µM/min. The “peptide conversion (deamidation) in antigenic regions compared to non-antigenic regions” value in data set [2] is “over 5.5 times”. In addition, the “digestion of 33mer peptide derived from α-gliadin” value in data set [3] is recorded as “highly resistant to digestion”. Moreover, in data set [4], the “small intestinal CD3+ intraepithelial lymphocyte (IEL) counts” value is “significant increases”. In data set [5], the “hydrolysis of 33mer peptide” value was “Neither pepsin nor a bacterial prolyl endoprotease from Myxococcus xanthus (MX) were able to hydrolyse”. Further, the “digestion of total protein of crude gliadin by SDS-PAGE” value in data set [6] (10 mg/ml gliadin, pH 2.5, 37° C., 90 min) is “could not be achieved”. Also, the “detected digest product having a molecular weight greater than 4000 Da” value in data set [6] (10 mg/ml gliadin, pH 2.5, 37° C., 90 min, high concentrations of pepsin) amounted to 25 wt %. Moreover, the “average peptide length, label-free, all peptide signals” value in data set [6] (10 mg/ml gliadin, pH 2.5, 37° C., 90 min, pepsin 5 μM, fluid extract 0.23 μM) was 19.2 residues. Moreover, the “weighted average peptide length, identified peptides” value in data set [6] (pepsin 5 μM, fluid protease 0.46 μM, co-digestion using these two concentrations) was determined as 16.9 residues.
